Legend:
mice [1] = experiment: Hot Plate Assay in mice; format: in vivo
Description: (§1) Antinociceptive activity of compounds of the invention was determined in vivo in a PBQ writhing model and in the hot plate test in rodents. Inhibition of PBQ (phenyl-.rho.-benzoquinone) induced writhing in mice is an assessment of both central and peripherally-mediated analgesia. For experimental protocol see Sigmund et al., Proc. Soc. Ex. Biol. Med., 95, p. 729 (1957) which is incorporated herein by reference. Centrally-mediated analgesia was determined by the inhibition of a hot plate response in mice. For experimental protocol see G. Woolfe and A. Macdonald, J. Pharmacol. Exp. Ther., 80, p. 300 ([…]) which is incorporated herein by reference. Assays measuring opioid receptor binding affinities for μ, δ and κ receptors as well as GPI and MVD assays were determined through experimental protocol set out in Schiller et al., Biophys. Res. Commun., 85, p. 1322 (1975); Rothman et al, Peptides, Vol 11, pp 311-331, 1990; Kaffa et al, Peptides 15(3), 401-404, 1994; Fowler et al, Neurochem. Int 24(5), 401-426, 1994; and Leslie F., Pharmacological Review 39(3), 197-249, 1987 incorporated herein by reference.
For this test, CD #1 male mice (Charles River) weighing between 20-25 grams were used. The mice were weighed, identified, and randomized into groups of 10.
The mice were usually treated by subcutaneous injection of the compound (or the standard or vehicle) or by oral gavage.
The mice were evaluated individually for a latency reaction time on the hot plate. The temperature of the hot plate (Sorel, model DS37) was set at 55° C. […] The reaction time was recorded when one of these signs was noted. The cut off for latency response was 15 seconds so as to prevent damage to the paw tissue. […] The time intervals are typically 30, 60 or 120 minutes (or other).
For each time reading, the average reaction time of the control group was multiplied by 1.5. The reaction time of each treated animal was compared to the "control average×1.5".

mice [2] = experiment: Phenylquinone (PBQ) Writhing Assay; format: in vivo
Description: as §1
Phenylquinone Writhing Assay
The test was performed using CD #1 male mice (Charles River) weighing between 19 and 25 g. Animals were maintained in constant conditions of light, temperature and humidity. The animals were acclimatized for three days prior to experimentation. […]

CC12CCCCSC(Cc3ccc(O)cc31)C2N (centres unmarked) [compound #9, 5,6,7,8,9,11,12-heptahydro-3-hydroxy-5-methyl-10-thia-5,11 methanobenzocyclodecen-13-amine]
latency response time (mice [1]; 2.5 mg/kg, subcutaneous, after 15 minutes (FIG. 1)): almost maximum | reaction time (mice [1]; 5 mg/kg, subcutaneous (FIG. 1), control approximately 7 seconds): about 19 seconds | latency response to radiant heat, dose dependence (mice [1]; subcutaneous (FIG. 1)): dose dependent latency response | inhibition of the writhing response (PBQ) (mice [2]; oral administration one hour prior to PBQ (FIG. 2)): dose-dependent inhibition | inhibition of the writhing response (PBQ) (mice [2]; s.c. administration twenty minutes prior to PBQ (FIG. 3)): dose-dependent inhibition
